According to patent US20250098679A1, “HERBICIDAL PYRIDONE DERIVATIVES” (SYNGENTA CROP PROTECTION AG, priority 2021, published 2025):

Tests used:
Type in all cases: in vivo
Conditions in all cases: evaluated after 13 days
[1] = test system: Ipomoea hederacea (IPOHE); assay: Pre-emergence Test, Ipomoea hederacea (IPOHE)
[2] = test system: Amaranthus retoflexus (AMARE); assay: Post-emergence Test, Amaranthus retoflexus (AMARE); design: key to percentage damage caused to the plant, AMARE (five-point scale): 5=81-100%, 4=61-80%, 3=41-60%, 2=21-40%, 1=0-20% damage
Method in brief: (§1)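 Tested at 1000 g/ha unless otherwise stated. Plants were held at 24/16 °C day/night with a 14 h light period. Percent damage was read at 13 days and reported in five bands.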

[3] = test system: Ipomoea hederacea (IPOHE); assay: Post-emergence Test, Ipomoea hederacea (IPOHE); design: key to percentage damage caused to the plant, IPOHE (five-point scale): 5=81-100%, 4=61-80%, 3=41-60%, 2=21-40%, 1=0-20% damage
Method in brief: as §1

[4] = test system: Amaranthus palmeri (AMAPA); assay: Pre-emergence Test, Amaranthus palmeri (AMAPA)
[5] = test system: Amaranthus palmeri (AMAPA); assay: Post-emergence Test, Amaranthus palmeri (AMAPA); design: key: 5=81-100%, 4=61-80%, 3=41-60%, 2=21-40%, 1=0-20% damage
Method in brief: as §1

[6] = test system: Echinochloa crus-galli (ECHCG); assay: Pre-emergence Test, Echinochloa crus-galli (ECHCG)
[7] = test system: Echinochloa crus-galli (ECHCG); assay: Post-emergence Test, Echinochloa crus-galli (ECHCG); design: key to percentage damage caused to the plant, ECHCG (five-point scale): 5=81-100%, 4=61-80%, 3=41-60%, 2=21-40%, 1=0-20% damage
Method in brief: as §1

[8] = test system: Setaria faberi (SETFA); assay: Post-emergence Test, Setaria faberi (SETFA); design: key to percentage damage caused to the plant, SETFA (five-point scale): 5=81-100%, 4=61-80%, 3=41-60%, 2=21-40%, 1=0-20% damage
Method in brief: as §1

[9] = test system: Amaranthus retoflexus (AMARE); assay: Pre-emergence Test, Amaranthus retoflexus (AMARE)
[10] = test system: Zea mays (ZEAMX); assay: Post-emergence Test, Zea mays (ZEAMX); design: key to percentage damage caused to the plant, ZEAMX (five-point scale): 5=81-100%, 4=61-80%, 3=41-60%, 2=21-40%, 1=0-20% damage
Method in brief: as §1

[11] = test system: Zea mays (ZEAMX); assay: Pre-emergence Test, Zea mays (ZEAMX)
[12] = test system: Setaria faberi (SETFA); assay: Pre-emergence Test, Setaria faberi (SETFA)

| Compound | Pre-emergence Test IPOHE, percentage damage caused to the plant (five-point scale) ([1]; 250 g/Ha (*)) | Pre-emergence Test IPOHE, percentage damage caused to the plant (five-point scale) ([1]; 1000 g/ha) | percentage damage caused to the plant, AMARE (five-point scale) ([2]; 250 g/Ha) | percentage damage caused to the plant, AMARE (five-point scale) ([2]; 1000 g/ha) | percentage damage caused to the plant, IPOHE (five-point scale) ([3]; 250 g/Ha) | percentage damage caused to the plant, IPOHE (five-point scale) ([3]; 1000 g/ha) | Pre-emergence Test AMAPA, percentage damage caused to the plant (five-point scale) ([4]; 250 g/Ha (*)) | Pre-emergence Test AMAPA, percentage damage caused to the plant (five-point scale) ([4]; 1000 g/ha) | percentage damage caused to the plant, AMAPA (five-point scale) ([5]; 250 g/Ha) | percentage damage caused to the plant, AMAPA (five-point scale) ([5]; 1000 g/ha) | Pre-emergence Test ECHCG, percentage damage caused to the plant (five-point scale) ([6]; 250 g/Ha (*)) | Pre-emergence Test ECHCG, percentage damage caused to the plant (five-point scale) ([6]; 1000 g/ha) | percentage damage caused to the plant, ECHCG (five-point scale) ([7]; 250 g/Ha) | percentage damage caused to the plant, ECHCG (five-point scale) ([7]; 1000 g/ha) | percentage damage caused to the plant, SETFA (five-point scale) ([8]; 250 g/Ha) | percentage damage caused to the plant, SETFA (five-point scale) ([8]; 1000 g/ha) | Pre-emergence Test AMARE, percentage damage caused to the plant (five-point scale) ([9]; 250 g/Ha (*)) | Pre-emergence Test AMARE, percentage damage caused to the plant (five-point scale) ([9]; 1000 g/ha) | percentage damage caused to the plant, ZEAMX (five-point scale) ([10]; 250 g/Ha) | percentage damage caused to the plant, ZEAMX (five-point scale) ([10]; 1000 g/ha) | also measured |
| --- | --- | --- | --- | --- | --- | --- | --- | --- | --- | --- | --- | --- | --- | --- | --- | --- | --- | --- | --- | --- | --- |
| CCn1c(Cn2cc(C(F)F)cn2)cc(=O)c(C(=O)O)c1-c1ccc(Cl)c(Cl)c1 [Compound 109, 2-(3,4-dichlorophenyl)-6-[[4-(difluoromethyl)pyrazol-1-yl]methyl]-1-ethyl-4-oxo-pyridine-3-carboxylic acid] | 1 (1=0-20%) | 4 (4=61-80%) | 0 | 1 (1=0-20%) | 2 (2=21-40%) | 3 (3=41-60%) | 0 | 0 | 0 | 3 (3=41-60%) | 3 (3=41-60%) | 5 (5=81-100%) | 3 (3=41-60%) | 4 (4=61-80%) | 1 (1=0-20%) | 4 (4=61-80%) | 0 | 0 | 1 (1=0-20%) | 3 (3=41-60%) | Pre-emergence Test ZEAMX, percentage damage caused to the plant (five-point scale) ([11]; 250 g/Ha (*)): 0; Pre-emergence Test ZEAMX, percentage damage caused to the plant (five-point scale) ([11]; 1000 g/ha): 0; Pre-emergence Test SETFA, percentage damage caused to the plant (five-point scale) ([12]; 250 g/Ha (*)): 2 (2=21-40%); Pre-emergence Test SETFA, percentage damage caused to the plant (five-point scale) ([12]; 1000 g/ha): 5 (5=81-100%) |
| CCn1c(Cn2ccc(C(F)F)n2)cc(=O)c(C(=O)O)c1-c1ccc(Cl)c(Cl)c1 [Compound 186] | 2 (2=21-40%) | 4 (4=61-80%) | 1 (1=0-20%) | 3 (3=41-60%) | 4 (4=61-80%) | 4 (4=61-80%) | 0 | 1 (1=0-20%) | 2 (2=21-40%) | 2 (2=21-40%) | 4 (4=61-80%) | 5 (5=81-100%) | 4 (4=61-80%) | 4 (4=61-80%) | 4 (4=61-80%) | 4 (4=61-80%) | 0 | 2 (2=21-40%) | 1 (1=0-20%) | 1 (1=0-20%) | Pre-emergence Test ZEAMX, percentage damage caused to the plant (five-point scale) ([11]; 250 g/Ha (*)): 0; Pre-emergence Test ZEAMX, percentage damage caused to the plant (five-point scale) ([11]; 1000 g/ha): 3 (3=41-60%); Pre-emergence Test SETFA, percentage damage caused to the plant (five-point scale) ([12]; 250 g/Ha (*)): 5 (5=81-100%); Pre-emergence Test SETFA, percentage damage caused to the plant (five-point scale) ([12]; 1000 g/ha): 5 (5=81-100%) |
| CCn1c(Cn2nc(C(F)(F)F)cc2Cl)cc(=O)c(C(=O)O)c1-c1ccc(Cl)c(Cl)c1 [Compound 169, 6-[[5-chloro-3-(trifluoromethyl)pyrazol-1-yl]methyl]-2-(3,4-dichlorophenyl)-1-ethyl-4-oxo-pyridine-3-carboxylic acid] | 1 (1=0-20%) |  | 3 (3=41-60%) |  | 4 (4=61-80%) |  | 1 (1=0-20%) |  | 3 (3=41-60%) |  | 4 (4=61-80%) |  | 3 (3=41-60%) |  | 4 (4=61-80%) |  | 1 (1=0-20%) |  | 4 (4=61-80%) |  | Pre-emergence Test ZEAMX, percentage damage caused to the plant (five-point scale) ([11]; 250 g/Ha (*)): 0; Pre-emergence Test SETFA, percentage damage caused to the plant (five-point scale) ([12]; 250 g/Ha (*)): 5 (5=81-100%) |
| CCOc1cc(C)nn1Cc1cc(=O)c(C(=O)O)c(-c2ccc(Cl)c(Cl)c2)n1CC [Compound 149, 2-(3,4-dichlorophenyl)-6-[(5-ethoxy-3-methyl-pyrazol-1-yl)methyl]-1-ethyl-4-oxo-pyridine-3-carboxylic acid] |  | 0 | 0 | 2 (2=21-40%) | 1 (1=0-20%) | 2 (2=21-40%) |  | 3 (3=41-60%) | 0 | 1 (1=0-20%) |  | 1 (1=0-20%) | 1 (1=0-20%) | 4 (4=61-80%) | 1 (1=0-20%) | 3 (3=41-60%) |  | 1 (1=0-20%) | 0 | 2 (2=21-40%) | Pre-emergence Test ZEAMX, percentage damage caused to the plant (five-point scale) ([11]; 1000 g/ha): 0; Pre-emergence Test SETFA, percentage damage caused to the plant (five-point scale) ([12]; 1000 g/ha): 4 (4=61-80%) |
